Assay results: the OPERA property sets (Mansouri et al. 2018)
Where a SMILES comes first, the peptide text is derived from it.

SMILES	logP
O=C(O)Cc1ccccc1Nc1c(F)cccc1F	3.57
COc1cc2c(c(OC)c1OC)-c1ccc(SC)c(=S)cc1C(NC(C)=O)CC2 (stereo not given)	1.75
CCc1ccccc1CNc1[nH]cnc2ncnc1-2	2.92
Clc1cc2c(c(Cl)c1Cl)Oc1c(Cl)ccc(Cl)c1O2	6.24
O=c1nc(N=CN2CCCCC2)ccn1C1CC(O)C(CO)O1 (stereo not given)	-0.51
CC(C)=CC1C(C(=O)OCc2cccc(C(=O)c3ccccc3)c2)C1(C)C (stereo not given)	6.54
CC(C)NC(=S)NS(=O)(=O)c1cnccc1NC1CCCCCC1	3.86
CN1CCc2ccccc2C1	2.14
CC(C)CC(NC(=O)C(NC(=O)C1CCCN1C(=O)C(N)C(C)C)C(C)C)C(=O)O (stereo not given) (H-VPVL-OH; configuration not given here)	-1.91
CC(=O)OC(C)(C)C1CCC2(C)CCCC(O)C2C1 (stereo not given)	3.62
CC(C)NC(=NC#N)NS(=O)(=O)c1cnccc1Nc1cccc(I)c1	2.51
CC1CCC2CC(=O)N(CCc3ccccc3)C3OC4(C)CCC1C23OO4 (stereo not given)	3.94
CCOc1cccc(COC(=O)C2C(C=C(C)C(=O)OC)C2(C)C)c1 (stereo not given)	4.78
O=S1CCCC1	-0.96
COc1cccc2c1CCC(N)C2C (stereo not given)	2.26
CC(=O)N(O)CCCCCNC(=O)CCC(=O)N(O)CCCCCNC(=O)CCC(=O)N(O)CCCCCNC(=O)CCC(=O)O	-0.51
O=C(O)CCCCCON=C(c1ccccc1)c1ccncn1	2.66
Cn1cc(-c2ccc(Cl)cc2)c(N2CCOCC2)c1	4.2
CC(C)CC(N)C(=O)NC(C(=O)NC(C(=O)O)C(C)C)C(C)C (stereo not drawn) (H-Leu-Val-Val-OH; configuration not given here)	-2.1
O=[N+]([O-])c1nccn1CC(O)C(O)CF (stereo not given)	-0.77
CC(=O)NC(CCCCN(Cc1ccccc1)C(=O)N(CCCl)N=O)C(=O)NCc1ccccc1 (stereo not given)	2.46
CCc1cccc(Nc2ccncc2S(=O)(=O)NC(=NC#N)NC(C)C)c1	2.4
COCCOC(=O)C1=C(C)NC(C)=C(C(=O)OC(C)C)C1c1cccc2c1OCO2 (stereo not given)	3.94
c1ccc(Nc2ncnc3nc[nH]c23)cc1	2.12

SMILES	logP
CSc1cnc(C2=NC(C)(C(C)C)C(=O)N2)c(C(=O)O)c1 (stereo not given)	0.75
CCCCCCC(Nc1ccc([N+](=O)[O-])cc1[N+](=O)[O-])C(=O)O (stereo not given)	4.2
CCn1ccnc1CC1COc2ccccc2O1 (stereo not given)	2.31
COCCCNc1[nH]cnc2ncnc1-2	0.75
COC(=O)C(C)NP(=O)(OCC1C=CC(n2cc(C)c(=O)[nH]c2=O)O1)Oc1cccc(Br)c1 (stereo not given)	1.64
O=[n+]1cnn([O-])c2ccccc21	-0.8
COCCCNc1ncnc2c1ncn2C1OC(CO)C(O)C1O (stereo not given)	-0.17
OCCCNc1[nH]cnc2ncnc1-2	0.11
Clc1cc(Oc2ccccc2)c(Cl)c(Cl)c1Cl	6.31
CCCCC(=O)C(CCCCOc1c(C)cc(C)cc1[N+](=O)[O-])n1cncn1 (stereo not given)	3.9
O=c1cc(CSC2CCCCC2)occ1O	1.75
Nc1ccc(CNC(=O)C2CCCN2C(=O)C(Cc2ccc(Cl)c(Cl)c2)NS(=O)(=O)Cc2ccccc2)cn1 (stereo not given)	3.68
CCOc1cccc(COC(=O)C2C(C=C(C)C)C2(C)C)c1 (stereo not given)	5.87
CN(C)C1=NC(=O)N(c2ccc(Cl)cc2)C1	1.6
CC(=O)NC(CCCNC(=O)N(CCCl)N=O)C(=O)NCc1ccccc1 (stereo not given)	1.33
CCc1cccc(CNc2[nH]cnc3ncnc2-3)c1	2.98
Cc1ccc(-n2c(Cc3c(C)[nH]c4ccccc34)n[nH]c2=S)cc1	3
CSCCC(N)C(=O)NC(C(=O)O)C(C)C (stereo not drawn) (H-Met-Val-OH; configuration not given here)	-2.53
CC(Nc1[nH]cnc2ncnc1-2)c1ccccc1 (stereo not given)	2.58
CN1CC(O)N(C(=O)NC2CCCC2)C1=O (stereo not given)	1.47
O=C1C=C(N2CC2)C(=O)C=C1N1CC1	0.18
CCC(=O)NCCCCCN(O)C(=O)CCC(=O)NCCCCCN(O)C(=O)CCC(=O)NCCCCCN(O)C(C)=O	0.17
c1[nH]nc2c1CCC1c3n[nH]cc3CCC21 (stereo not given)	0.3
CC(C)C(NC(=O)C(N)Cc1ccccc1)C(=O)NC(Cc1ccc(O)cc1)C(=O)NC(Cc1ccccc1)C(=O)O (stereo not given) (H-FVYF-OH; configuration not given here)	-0.32

SMILES	logP
CNc1ccc(-c2cn3cc(SC)ccc3n2)cc1	3.9
CCC(C)C(N)C(=O)NC(C(=O)NCC(=O)NC(Cc1ccccc1)C(=O)O)C(C)CC (stereo not given) (H-IIGF-OH; configuration not given here)	-0.99
NC(=O)C(CCN1CC2CCC(CC2)C1)(c1ccccc1)c1ccccn1 (stereo not given)	2.72
N#CCCOC1Cc2c(O)cc(O)cc2OC1c1ccc(O)c(O)c1 (stereo not given)	0.96
Cc1cccc(C)c1Cc1cn[nH]c1	3.6
CCSSc1ncc[nH]1	2.13
COc1ccc(C2CC(=O)N(CCN(C)C)c3cccc(C(F)(F)F)c3C2)cc1 (stereo not given)	5.1
Nc1ccc(S(=O)(=O)Nc2cccc3[nH]ccc23)cc1	1.41
CC(C)(C)[N+]([O-])=Cc1cccc([N+](=O)[O-])c1	1.3
Clc1ccccc1CNc1ncnc2nc[nH]c12	2.76
CCCCC(O)C(CCCCOc1cccc2ccccc12)n1cncn1 (stereo not given)	4.31
C=CCC1C(=O)N(CCN(C)C)c2ccccc2CC1c1ccc(OC)cc1 (stereo not given)	5.3
CCN(CC)CC(=O)NCC(=O)Nc1c(C)cccc1C	2.2
Cc1ccccc1CNc1[nH]cnc2ncnc1-2	2.58
CCCC(=NOCC)C1=C(O)CC2(CCC(C)C2)OC1=O (stereo not given)	3.66
OCCCCCNc1ncnc2c1ncn2C1OC(CO)C(O)C1O (stereo not given)	-0.24
CC(=O)OC1CCCC2(C)CCC(C(C)(C)O)CC12 (stereo not given)	3.42
COc1ccc(NC(=O)OCCN2CCCCC2)cc1	2.95
CCCc1nc(NC)nc(N2CCOCC2)n1	2.15
CC1=C(C#N)C(C)(C)C(C#N)=C(C)N1	2.47
Cc1nc2c3c(c(C(=O)O)cn2c1C)CCC(c1ccccc1)O3 (stereo not given)	4.6
C=CCC1C(=O)N(CCN(C)C)c2cccc(C(F)(F)F)c2CC1c1ccc(OC)cc1 (stereo not given)	6.6
COc1cccc2c1C(=O)c1c(O)c3c(c(O)c1C2=O)CC(O)(C(=O)CO)CC3OC1CC(N(C)C)C(O)C(C)O1 (stereo not given)	1.28
[O-][n+]1ccc(-c2ccccc2)cc1	0.93

SMILES	logP
FC(F)(F)c1cccc(CNc2[nH]cnc3ncnc2-3)c1	3.08
Nc1nnnn1-c1cccc(Cl)c1	1.44
NC1=NCC(CN2CCC(C(=O)c3ccccc3)CC2)O1 (stereo not given)	1.05
CN(C)C(C)(C)O	0.2
O=C1C=C(c2ccc(Cl)cc2)C(=O)N1c1ccc(Cl)cc1	3
CC1(C(=O)O)CSC(c2cc(O)ccc2O)=N1 (stereo not given)	1.3
CC(C)(C)Nc1nc(N)nc(Cl)n1	1.94
Nc1nc(F)nc2c1ncn2[C@@H]1O[C@H](CO)[C@@H](O)[C@H]1O	-0.8
COc1ccc(F)cc1CNC1CCCNC1c1ccccc1 (stereo not given)	3.5
c1ccc2c(c1)OCC(Cc1nc3ccccc3[nH]1)O2 (stereo not given)	3.29
OC(CNCC(O)C1CCc2cc(F)ccc2O1)C1CCc2cc(F)ccc2O1 (stereo not given)	4.04
COc1ccc(C2Cc3c(OC)cccc3N(CCN(C)C)C(=O)C2C)cc1 (stereo not given)	4.6
COc1ccc(C2Cc3cc(OC(=O)C(C)(C)C)ccc3N(CCN(C)C)C(=O)C2OC(C)=O)cc1 (stereo not given)	4.9
COc1cccc(C=[N+]([O-])C(C)(C)C)c1	1.4
COc1ccc(C2Cc3c(ccc(Br)c3OC)N(CCN(C)C)C(=O)C2OC(C)=O)cc1 (stereo not given)	4.4
COc1ccc2c(c1)OCN(CCO[N+](=O)[O-])C2=O	2.09
CCCCC(C)CC(O)C=CC1C(O)CC2CC(CCOCC(=O)OC)CC21 (stereo not given)	4.5
Brc1ccc2ccc3ccc(Br)c4ccc1c2c34	6.73
Cc1coc2cc3oc(=O)ccc3cc12	2.47
NC1=NCC(CN2CCN(c3ccc([N+](=O)[O-])cc3)CC2)O1 (stereo not given)	1.23
CN1COCc2c1ccc1cc3ccc4c(c3nc21)COC(=O)N4	1.7
COC(=O)c1[nH]cc(-c2ccc(Cl)cc2)c1N1CCOCC1	3.5
CC(=NNC(=O)c1ccc(Br)cc1)c1cnccn1	2.9
O=C1c2ccc(Cl)cc2OCN1CCO[N+](=O)[O-]	2.74

SMILES	logP
CC(C)CC(NC(=O)C(N)Cc1ccc(O)cc1)C(=O)NC(C(=O)O)C(C)C (stereo not drawn) (H-Tyr-Leu-Val-OH; configuration not given here)	-1.45
Cc1cc2c(nn1)-c1ccccc1C2=O	1.58
CCN(CC)CCC(=O)Nc1c(C)cc(N)cc1C	0.93
CCC(C)(C)c1ccc(OCC2CN=C(N)O2)cc1 (stereo not given)	3.69
CC(C)NC(=NC#N)NS(=O)(=O)c1cnccc1NCc1ccccc1	1.36
CN1CC(O)N(C(=O)NC2CCCCCC2)C1=O (stereo not given)	2.29
CCC(C)C(NC(=O)C(C)NC(=O)C(CC(C)C)NC(=O)C(N)CO)C(=O)NC(C(=O)O)C(C)C (stereo not given) (H-SLAIV-OH; configuration not given here)	-1.94
COc1cc2c(Nc3cc(CC(=O)Nc4cccc(F)c4F)[nH]n3)ncnc2cc1OCCCN(CCO)CC(C)C	5.2
CCS(=O)(=O)n1cc(-c2ccc(Cl)cc2)c(N2CCOCC2)c1C(=O)OC	4.2
CC(C)CCCCNc1[nH]cnc2ncnc1-2	3.61
Cc1c(C)c2occc2c2oc(=O)ccc12	2.84
ClCC1(C(Cl)Cl)C2C(Cl)CC1(C(Cl)Cl)C(Cl)C2Cl (stereo not given)	5.19
On1nnc2ccccc21	0.69
C=C1CCCC2(C)CCC(C(C)(C)O)CC12 (stereo not given)	4.64
CC(C)CC(=O)OCC(=O)C1(O)C(C)CC2C3CCC4=CC(=O)C=CC4(C)C3(F)C(O)CC21C (stereo not given)	3.8
Cc1cc(=O)n(C)c2c1cc(C)c1occ(C)c12	3.3
N#Cc1cccc(Cc2ncccn2)c1	1.46
CCCCNC(=O)Cn1cccc(O)c1=O	0.33
Clc1cc(Cl)c(-c2cc(Cl)cc(Cl)c2Cl)c(Cl)c1	6.87
O=C(NC1CCCCC1)NS(=O)(=O)c1cnccc1NC1CCCCCC1	4.59
CCCOc1ccccc1CNc1[nH]cnc2ncnc1-2	3.27
CC(C)CNc1[nH]cnc2ncnc1-2	1.92
COc1ccc(C2Cc3cc(C(F)(F)F)ccc3N(CCN(C)C)C(=O)C2CC(C)=O)cc1 (stereo not given)	4.7
COc1ccc(C2Cc3c(cccc3C(F)(F)F)N(CCN(C)C)C(=O)C2O)cc1 (stereo not given)	4.1
